{"source": "patent US9376425B2", "about": "“Heterocyclic compounds as MDM2 inhibitors for the treatment of cancer” (AMGEN INC., priority 2011, dated 2016)", "molecular_target": "T1, human MDM2 (GST-hMDM2 1-188), interaction with biotinylated-p53 (1-83) (Homo sapiens, UniProt Q00987)", "T1 construct": "Amino acid residues 1-188 of human MDM2 were expressed; made in house; host or cells: Escherichia coli", "T1 sequence (Q00987 1-188)": "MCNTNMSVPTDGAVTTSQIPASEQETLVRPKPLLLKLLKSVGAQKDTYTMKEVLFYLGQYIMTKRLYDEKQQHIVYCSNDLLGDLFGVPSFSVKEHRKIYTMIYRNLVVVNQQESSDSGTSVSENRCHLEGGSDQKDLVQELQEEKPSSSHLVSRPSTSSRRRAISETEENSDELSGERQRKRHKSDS", "assay": "improved HTRF assay (HTRF2 assay), inhibition of HDM2-p53 interaction", "type": "binding", "details": "0.2 nM GST-hMDM2, 0.5 nM biotinylated-p53, 100 mM KF", "how_it_was_run": "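GST-hMDM2 preincubated 20 min at RT with serially diluted compound, then biotinylated p53 (1-83, E. coli) added for 60 min. Detection with SA-XLent, anti-GST cryptate and KF, equilibrated >4 h; final DMSO 2%. TR-FRET read; % inhibition calculated relative to nutlin-3.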", "data": [{"smiles": "O=C(O)C[C@H]1O[C@H](c2cccc(Cl)c2)[C@@H](c2ccc(Cl)cc2)N([C@H](CN(c2ncccc2F)S(=O)(=O)C2CC2)C2CC2)C1=O", "note": "(single isomer, unassigned) [Example 189, 2-((2R,5R,6R)-6-(3-chlorophenyl)-5-(4-chlorophenyl)-4-((S)-1-cyclopropyl-2-(N-(3-fluoropyridin-2-yl)cyclopropanesulfonamido)ethyl)-3-oxomorpholin-2-yl)acetic acid or 2-((2S,5R,6R)-6-(3-chlorophenyl)-5-(4-chlorophenyl)-4-((S)-1-cyclopropyl-2-(N-(3-fluoropyridin-2-yl)cyclopropanesulfonamido)ethyl)-3-oxomorpholin-2-yl)acetic acid]", "values": [{"measurement": "IC50", "result": "< 1", "unit": "nM"}]}, {"smiles": "CC[C@@H](CS(=O)(=O)CC1CC1)N1C(=O)[C@@H](CC(=O)O)O[C@H](c2cccc(Cl)c2)[C@H]1c1ccc(Cl)cc1", "note": "(single isomer, unassigned) [Example 190, 2-((2R,5R,6R)-6-(3-chlorophenyl)-5-(4-chlorophenyl)-4-((S)-1-((cyclopropylmethyl)sulfonyl)butan-2-yl)-3-oxomorpholin-2-yl)acetic acid or 2-((2S,5R,6R)-6-(3-chlorophenyl)-5-(4-chlorophenyl)-4-((S)-1-((cyclopropylmethyl)sulfonyl)butan-2-yl)-3-oxomorpholin-2-yl)acetic acid]", "values": [{"measurement": "IC50", "result": 3, "unit": "nM"}]}, {"smiles": "CC[C@@H](CS(=O)(=O)CC1CC1)N1C(=O)[C@@H](CC(=O)O)O[C@H](c2cccc(Cl)c2)[C@H]1c1ccc(Cl)cc1", "note": "(single isomer, unassigned) [Example 191, 2-((2R,5R,6R)-6-(3-chlorophenyl)-5-(4-chlorophenyl)-4-((S)-1-((cyclopropylmethyl)sulfonyl)butan-2-yl)-3-oxomorpholin-2-yl)acetic acid or 2-((2S,5R,6R)-6-(3-chlorophenyl)-5-(4-chlorophenyl)-4-((S)-1-((cyclopropylmethyl)sulfonyl)butan-2-yl)-3-oxomorpholin-2-yl)acetic acid]", "values": [{"measurement": "IC50", "result": 5, "unit": "nM"}]}, {"smiles": "CC(C)[C@@H](CN(c1ccccc1)S(=O)(=O)C1CC1)N1C(=O)[C@@H](CC(=O)O)O[C@H](c2cccc(Cl)c2)[C@H]1c1ccc(Cl)cc1", "note": "(single isomer, unassigned) [Example 192, 2-((2R,5R,6R)-6-(3-chlorophenyl)-5-(4-chlorophenyl)-4-((S)-3-methyl-1-(N-phenylcyclopropanesulfonamido)butan-2-yl)-3-oxomorpholin-2-yl)acetic acid or 2-((2S,5R,6R)-6-(3-chlorophenyl)-5-(4-chlorophenyl)-4-((S)-3-methyl-1-(N-phenylcyclopropanesulfonamido)butan-2-yl)-3-oxomorpholin-2-yl)acetic acid]", "values": [{"measurement": "IC50", "result": 1, "unit": "nM"}]}, {"smiles": "CC(C)[C@H](CN(c1ccccc1)S(=O)(=O)C1CC1)N1C(=O)[C@@H](CC(=O)O)O[C@H](c2cccc(Cl)c2)[C@H]1c1ccc(Cl)cc1", "note": "(single isomer, unassigned) [Example 193, 2-((2R,5R,6R)-6-(3-chlorophenyl)-5-(4-chlorophenyl)-4-((R)-3-methyl-1-(N-phenylcyclopropanesulfonamido)butan-2-yl)-3-oxomorpholin-2-yl)acetic acid or 2-((2S,5R,6R)-6-(3-chlorophenyl)-5-(4-chlorophenyl)-4-((R)-3-methyl-1-(N-phenylcyclopropanesulfonamido)butan-2-yl)-3-oxomorpholin-2-yl)acetic acid]", "values": [{"measurement": "IC50", "result": 32, "unit": "nM"}]}, {"smiles": "CCC[C@@H](CS(=O)(=O)C(C)(C)C)N1C(=O)[C@@H](CC(=O)O)O[C@H](c2cccc(Cl)c2)[C@H]1c1ccc(Cl)cc1", "note": "(single isomer, unassigned) [Example 194, 2-((2R,5R,6R)-4-((S)-1-(tert-butylsulfonyl)pentan-2-yl)-6-(3-chlorophenyl)-5-(4-chlorophenyl)-3-oxomorpholin-2-yl)acetic acid or 2-((2S,5R,6R)-4-((S)-1-(tert-butylsulfonyl)pentan-2-yl)-6-(3-chlorophenyl)-5-(4-chlorophenyl)-3-oxomorpholin-2-yl)acetic acid]", "values": [{"measurement": "IC50", "result": 3, "unit": "nM"}]}, {"smiles": "CCC[C@@H](CS(=O)(=O)C(C)(C)C)N1C(=O)[C@@H](CC(=O)O)O[C@H](c2cccc(Cl)c2)[C@H]1c1ccc(Cl)cc1", "note": "(single isomer, unassigned) [Example 195, 2-((2R,5R,6R)-4-((S)-1-(tert-butylsulfonyl)pentan-2-yl)-6-(3-chlorophenyl)-5-(4-chlorophenyl)-3-oxomorpholin-2-yl)acetic acid or 2-((2S,5R,6R)-4-((S)-1-(tert-butylsulfonyl)pentan-2-yl)-6-(3-chlorophenyl)-5-(4-chlorophenyl)-3-oxomorpholin-2-yl)acetic acid]", "values": [{"measurement": "IC50", "result": 3, "unit": "nM"}]}, {"smiles": "CC(C)[C@@H](CN(c1ccccc1F)S(=O)(=O)C(C)C)N1C(=O)[C@@H](CC(=O)O)O[C@H](c2cccc(Cl)c2)[C@H]1c1ccc(Cl)cc1", "note": "(single isomer, unassigned) [Example 198, 2-((2R,5R,6R)-6-(3-chlorophenyl)-5-(4-chlorophenyl)-4-((S)-1-(N-(2-fluorophenyl)propan-2-ylsulfonamido)-3-methylbutan-2-yl)-3-oxomorpholin-2-yl)acetic acid or 2-((2S,5R,6R)-6-(3-chlorophenyl)-5-(4-chlorophenyl)-4-((S)-1-(N-(2-fluorophenyl)propan-2-ylsulfonamido)-3-methylbutan-2-yl)-3-oxomorpholin-2-yl)acetic acid]", "values": [{"measurement": "IC50", "result": 1, "unit": "nM"}]}, {"smiles": "CC(C)[C@@H](CN(c1ccccc1F)S(=O)(=O)C(C)C)N1C(=O)[C@@H](CC(=O)O)O[C@H](c2cccc(Cl)c2)[C@H]1c1ccc(Cl)cc1", "note": "(single isomer, unassigned) [Example 199, 2-((2R,5R,6R)-6-(3-chlorophenyl)-5-(4-chlorophenyl)-4-((S)-1-(N-(2-fluorophenyl)propan-2-ylsulfonamido)-3-methylbutan-2-yl)-3-oxomorpholin-2-yl)acetic acid or 2-((2S,5R,6R)-6-(3-chlorophenyl)-5-(4-chlorophenyl)-4-((S)-1-(N-(2-fluorophenyl)propan-2-ylsulfonamido)-3-methylbutan-2-yl)-3-oxomorpholin-2-yl)acetic acid]", "values": [{"measurement": "IC50", "result": 1, "unit": "nM"}]}, {"smiles": "CC(C)[C@@H](CN(c1ccccc1F)S(=O)(=O)C(C)(C)C)N1C(=O)[C@@H](CC(=O)O)O[C@H](c2cccc(Cl)c2)[C@H]1c1ccc(Cl)cc1", "note": "(single isomer, unassigned) [Example 200, 2-((2R,5R,6R)-6-(3-chlorophenyl)-5-(4-chlorophenyl)-4-((S)-1-(N-(2-fluorophenyl)-2-methylpropan-2-ylsulfonamido)-3-methylbutan-2-yl)-3-oxomorpholin-2-yl)acetic acid or 2-((2S,5R,6R)-6-(3-chlorophenyl)-5-(4-chlorophenyl)-4-((S)-1-(N-(2-fluorophenyl)-2-methylpropan-2-ylsulfonamido)-3-methylbutan-2-yl)-3-oxomorpholin-2-yl)acetic acid]", "values": [{"measurement": "IC50", "result": 1, "unit": "nM"}]}, {"smiles": "CC(C)[C@@H](CN(c1ccccc1F)S(=O)(=O)C(C)(C)C)N1C(=O)[C@@H](CC(=O)O)O[C@H](c2cccc(Cl)c2)[C@H]1c1ccc(Cl)cc1", "note": "(single isomer, unassigned) [Example 201, 2-((2R,5R,6R)-6-(3-chlorophenyl)-5-(4-chlorophenyl)-4-((S)-1-(N-(2-fluorophenyl)-2-methylpropan-2-ylsulfonamido)-3-methylbutan-2-yl)-3-oxomorpholin-2-yl)acetic acid or 2-((2S,5R,6R)-6-(3-chlorophenyl)-5-(4-chlorophenyl)-4-((S)-1-(N-(2-fluorophenyl)-2-methylpropan-2-ylsulfonamido)-3-methylbutan-2-yl)-3-oxomorpholin-2-yl)acetic acid]", "values": [{"measurement": "IC50", "result": 2, "unit": "nM"}]}, {"smiles": "CC[C@@H](CS(=O)(=O)c1ccccn1)N1C(=O)[C@@H](CC(=O)O)O[C@H](c2cccc(Cl)c2)[C@H]1c1ccc(Cl)cc1", "note": "(single isomer, unassigned) [Example 202, 2-((2R,5R,6R)-6-(3-chlorophenyl)-5-(4-chlorophenyl)-3-oxo-4-((S)-1-(pyridin-2-ylsulfonyl)butan-2-yl)morpholin-2-yl)acetic acid or 2-((2S,5R,6R)-6-(3-chlorophenyl)-5-(4-chlorophenyl)-3-oxo-4-((S)-1-(pyridin-2-ylsulfonyl)butan-2-yl)morpholin-2-yl)acetic acid]", "values": [{"measurement": "IC50", "result": 4, "unit": "nM"}]}, {"smiles": "CC[C@@H](CS(=O)(=O)c1ccccn1)N1C(=O)[C@@H](CC(=O)O)O[C@H](c2cccc(Cl)c2)[C@H]1c1ccc(Cl)cc1", "note": "(single isomer, unassigned) [Example 203, 2-((2R,5R,6R)-6-(3-chlorophenyl)-5-(4-chlorophenyl)-3-oxo-4-((S)-1-(pyridin-2-ylsulfonyl)butan-2-yl)morpholin-2-yl)acetic acid or 2-((2S,5R,6R)-6-(3-chlorophenyl)-5-(4-chlorophenyl)-3-oxo-4-((S)-1-(pyridin-2-ylsulfonyl)butan-2-yl)morpholin-2-yl)acetic acid]", "values": [{"measurement": "IC50", "result": 20, "unit": "nM"}]}, {"smiles": "CC[C@@H](CS(=O)(=O)N1CCC[C@@H]1C)N1C(=O)[C@@H](CC(=O)O)O[C@H](c2cccc(Cl)c2)[C@H]1c1ccc(Cl)cc1", "note": "(single isomer, unassigned) [Example 208, 2-((2R,5R,6R)-6-(3-chlorophenyl)-5-(4-chlorophenyl)-4-((S)-1-(((S)-2-methylpyrrolidin-1-yl)sulfonyl)butan-2-yl)-3-oxomorpholin-2-yl)acetic acid or 2-((2S,5R,6R)-6-(3-chlorophenyl)-5-(4-chlorophenyl)-4-((S)-1-(((S)-2-methylpyrrolidin-1-yl)sulfonyl)butan-2-yl)-3-oxomorpholin-2-yl)acetic acid]", "values": [{"measurement": "IC50", "result": 2, "unit": "nM"}]}]}
